# Measured values from patent US20230159532A1, “PARATHYROID HORMONE (PTH) RECEPTOR ANTAGONISTS AND USES THEREOF” (Crinetics Pharmaceuticals, Inc., priority 2021, published 2023).
# Molecular target: T1, human PTHR1 receptor (Homo sapiens, UniProt Q03431)
# T1 construct: purchased Eurofins HTS030M
# T1 sequence (Q03431 27-593): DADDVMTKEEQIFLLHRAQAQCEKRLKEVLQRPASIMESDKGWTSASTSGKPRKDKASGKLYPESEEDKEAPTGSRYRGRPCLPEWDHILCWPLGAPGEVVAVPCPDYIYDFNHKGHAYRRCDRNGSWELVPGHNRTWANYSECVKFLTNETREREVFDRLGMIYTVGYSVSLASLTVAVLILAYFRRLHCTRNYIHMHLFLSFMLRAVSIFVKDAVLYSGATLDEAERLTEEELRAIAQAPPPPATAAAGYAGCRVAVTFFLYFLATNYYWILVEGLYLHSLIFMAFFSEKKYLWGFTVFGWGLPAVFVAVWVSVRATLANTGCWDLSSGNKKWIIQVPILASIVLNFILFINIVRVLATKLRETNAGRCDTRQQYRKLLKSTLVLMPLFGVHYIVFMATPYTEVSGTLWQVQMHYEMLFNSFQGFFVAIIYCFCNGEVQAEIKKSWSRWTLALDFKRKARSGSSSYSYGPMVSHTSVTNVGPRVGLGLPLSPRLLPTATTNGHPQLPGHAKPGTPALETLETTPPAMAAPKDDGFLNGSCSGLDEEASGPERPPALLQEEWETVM
# Test: Competitive antagonist binding assay for hPTH-R1 (radioactive competition binding, SPA beads)
# Settings: human PTHR1 membranes, [125I]-[Nle8,18,Tyr34]-PTH(1-34) 0.2 nM, 90 minutes at room temperature; read-out: hPTHR1 Ki
# Method in brief: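 Human PTHR1 membranes on SPA beads incubated 90 min at room temperature with compound (typically 0-10,000 nM final) and 0.2 nM [125I]-[Nle8,18,Tyr34]-PTH(1-34) in HEPES buffer with MgCl2, CaCl2, BSA, Triton X-100 and protease inhibitors, pH 7.4. Scintillation signal read; Ki values derived.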
row,Molecule,Ki [nM]
1,"Cc1cc(C#N)cc2c1-c1cc(F)cnc1N(C)C(=O)N2c1c(F)cc(NCCNCCO)cc1F [1-112, 10-[2,6-difluoro-4-({2-[(2-hydroxyethyl)amino]ethyl}amino)phenyl]-4-fluoro-8,15-dimethyl-9-oxo-6,8,10-triazatricyclo[9.4.0.0^2,7]pentadeca-1(11),2(7),3,5,12,14-hexaene-13-carbonitrile]",< 100
2,"CN1C(=O)N(c2c(F)cc(NCCNCCO)cc2F)c2cc(C#N)ccc2-c2cc(Cl)cnc21 [1-195, 4-chloro-10-[2,6-difluoro-4-({2-[(2-hydroxyethyl)amino]ethyl}amino)phenyl]-8-methyl-9-oxo-6,8,10-triazatricyclo[9.4.0.0^2,7]pentadeca-1(11),2(7),3,5,12,14-hexaene-13-carbonitrile]",< 100
3,"CCN1C(=O)N(c2c(F)cc(NCCNC3CCOCC3)cc2F)c2cc(Cl)ccc2-c2cc(C#N)ncc21 [3-24, 13-chloro-10-[2,6-difluoro-4-({2-[(oxan-4-yl)amino]ethyl}amino)phenyl]-8-ethyl-9-oxo-5,8,10-triazatricyclo[9.4.0.0^2,7]pentadeca-1(11),2(7),3,5,12,14-hexaene-4-carbonitrile]",< 100
4,"CCN1C(=O)N(c2c(F)cc(NCCN[C@@H]3CC[C@@H]3O)cc2F)c2cc(C#N)ccc2-c2cc(Cl)cnc21 [1-177, 4-chloro-10-{2,6-difluoro-4-[(2-{[(1R,2S)-2-hydroxycyclobutyl]amino}ethyl)amino]phenyl}-8-ethyl-9-oxo-6,8,10-triazatricyclo[9.4.0.0^2,7]pentadeca-1(11),2(7),3,5,12,14-hexaene-13-carbonitrile]",< 100
5,"CCN1C(=O)N(c2c(F)cc(NCCNCC(O)CO)cc2F)c2cc(C#N)ccc2-c2cc(Cl)cnc21 (centres unmarked) [1-156, 4-chloro-10-[4-({2-[(2,3-dihydroxypropyl)amino]ethyl}amino)-2,6-difluorophenyl]-8-ethyl-9-oxo-6,8,10-triazatricyclo[9.4.0.0^2,7]pentadeca-1(11),2(7),3,5,12,14-hexaene-13-carbonitrile]",< 100
6,"CCN1C(=O)N(c2ccc(NCCNC3CCOCC3)cc2F)c2cc(Cl)ccc2-c2cc(Cl)cnc21 [2-12, 4,13-dichloro-8-ethyl-10-[2-fluoro-4-({2-[(oxan-4-yl)amino]ethyl}amino)phenyl]-6,8,10-triazatricyclo[9.4.0.0^2,7]pentadeca-1(11),2(7),3,5,12,14-hexaen-9-one]",< 100
7,"CNCCNc1cc(F)c(N2C(=O)N(C)c3ncc(Cl)cc3-c3ccc(Cl)cc32)c(F)c1 [1-30, 4,13-dichloro-10-(2,6-difluoro-4-{[2-(methylamino)ethyl]amino}phenyl)-8-methyl-6,8,10-triazatricyclo[9.4.0.0^2,7]pentadeca-1(11),2(7),3,5,12,14-hexaen-9-one]",< 100
8,"10-[4-({2-[(3-amino-2-hydroxypropyl)amino]ethyl}amino)-2,6-difluorophenyl]-4-chloro-8-ethyl-9-oxo-6,8,10-triazatricyclo[9.4.0.0^2,7]pentadeca-1(11),2(7),3,5,12,14-hexaene-13-carbonitrile [1-188]",< 100
9,"CCN1C(=O)N(c2c(F)cc(NCCNCCCO)cc2F)c2cc(C#N)ccc2-c2cc(Cl)cnc21 [1-190, 4-chloro-10-[2,6-difluoro-4-({2-[(3-hydroxypropyl)amino]ethyl}amino)phenyl]-8-ethyl-9-oxo-6,8,10-triazatricyclo[9.4.0.0^2,7]pentadeca-1(11),2(7),3,5,12,14-hexaene-13-carbonitrile]",< 100
10,"CCN1C(=O)N(c2ccc(NCCNCCO)cc2F)c2cc(Cl)ccc2-c2cc(Cl)cnc21 [2-7, 4,13-dichloro-8-ethyl-10-[2-fluoro-4-({2-[(2-hydroxyethyl)amino]ethyl}amino)phenyl]-6,8,10-triazatricyclo[9.4.0.0^2,7]pentadeca-1(11),2(7),3,5,12,14-hexaen-9-one]",< 100
11,"CCN1C(=O)N(c2c(F)cc(NCCN[C@H]3C[C@@H](O)C3)cc2F)c2cc(C#N)ccc2-c2cc(Cl)cnc21 [1-192, 4-chloro-10-{2,6-difluoro-4-[(2-{1[(1s,3s)-3-hydroxycyclobutyl]amino}ethyl)amino]phenyl}-8-ethyl-9-oxo-6,8,10-triazatricyclo[9.4.0.0^2,7]pentadeca-1(11),2(7),3,5,12,14-hexaene-13-carbonitrile]",< 100
12,"CCN1C(=O)N(c2c(F)cc(NCCNC)cc2F)c2cc(Cl)cc(F)c2-c2cc(F)cnc21 [1-94, 13-chloro-10-(2,6-difluoro-4-{[2-(methylamino)ethyl]amino}phenyl)-8-ethyl-4,15-difluoro-6,8,10-triazatricyclo[9.4.0.0^2,7]pentadeca-1(11),2(7),3,5,12,14-hexaen-9-one]",< 100
13,"CCN1C(=O)N(c2c(F)cc(NCCNCCO)cc2F)c2cc(C#N)ncc2-c2cc(F)cnc21 [3-12, 8-[2,6-difluoro-4-({2-[(2-hydroxyethyl)amino]ethyl}amino)phenyl]-10-ethyl-14-fluoro-9-oxo-4,8,10,12-tetraazatricyclo[9.4.0.0^2,7]pentadeca-1(11),2(7),3,5,12,14-hexaene-5-carbonitrile]",< 100
14,"CNCCNc1ccc(N2C(=O)N(C)c3ncccc3-c3ccc(Cl)cc32)c(F)c1 [2-2, 13-chloro-10-(2-fluoro-4-{[2-(methylamino)ethyl]amino}phenyl)-8-methyl-6,8,10-triazatricyclo[9.4.0.0^2,7]pentadeca-1(11),2(7),3,5,12,14-hexaen-9-one]",100 to 1000
15,"O=C1N(CC(F)(F)F)c2ncc(Cl)cc2-c2ccc(Cl)cc2N1c1c(F)cc(NCCNCCO)cc1F [1-48, 4,13-dichloro-10-[2,6-difluoro-4-({2-[(2-hydroxyethyl)amino]ethyl}amino)phenyl]-8-(2,2,2-trifluoroethyl)-6,8,10-triazatricyclo[9.4.0.0^2,7]pentadeca-1(11),2(7),3,5,12,14-hexaen-9-one]",< 100
16,"CCN1C(=O)N(c2c(F)cc(NCCNCCO)cc2F)c2cc(C#N)ccc2-c2cc(C)cnc21 [1-208, 10-[2,6-difluoro-4-({2-[(2-hydroxyethyl)amino]ethyl}amino)phenyl]-8-ethyl-4-methyl-9-oxo-6,8,10-triazatricyclo[9.4.0.0^2,7]pentadeca-1(11),2(7),3,5,12,14-hexaene-13-carbonitrile]",< 100
17,"CN1C(=O)N(c2c(F)cc(NCCN)cc2F)c2cc(C#N)ccc2-c2cc(Cl)cnc21 [1-223, 10-{4-[(2-aminoethyl)amino]-2,6-difluorophenyl}-4-chloro-8-methyl-9-oxo-6,8,10-triazatricyclo[9.4.0.0^2,7]pentadeca-1(11),2(7),3,5,12,14-hexaene-13-carbonitrile]",< 100
18,"CCCN1C(=O)N(c2c(F)cc(NCCNCCO)cc2F)c2cc(C#N)ccc2-c2cc(F)cnc21 [1-118, 10-[2,6-difluoro-4-({2-[(2-hydroxyethyl)amino]ethyl}amino)phenyl]-4-fluoro-9-oxo-8-propyl-6,8,10-triazatricyclo[9.4.0.0^2,7]pentadeca-1(11),2(7),3,5,12,14-hexaene-13-carbonitrile]",< 100
19,"CCN1C(=O)N(c2c(F)cc(NCCNCCO)cc2F)c2cc(C#N)c(OC)cc2-c2cc(F)cnc21 [3-23, 10-[2,6-difluoro-4-({2-[(2-hydroxyethyl)amino]ethyl}amino)phenyl]-8-ethyl-4-fluoro-14-methoxy-9-oxo-6,8,10-triazatricyclo[9.4.0.0^2,7]pentadeca-1(11),2(7),3,5,12,14-hexaene-13-carbonitrile]",< 100
20,"CCN1C(=O)N(c2c(F)cc(NCCNCCNC(=O)OC)cc2F)c2cc(C#N)ccc2-c2cc(F)cnc21 [1-216, methyl N-[2-({2-[(4-{13-cyano-8-ethyl-4-fluoro-9-oxo-6,8,10-triazatricyclo[9.4.0.0^2,7]pentadeca-1(11),2(7),3,5,12,14-hexaen-10-yl}-3,5-difluorophenyl)amino]ethyl}amino)ethyl]carbamate]",< 100
21,"CCN1C(=O)N(c2c(F)cc(NCCNCCO)cc2F)c2cc(Cl)cc(C)c2-c2cc(F)cnc21 [1-31, 13-chloro-10-[2,6-difluoro-4-({2-[(2-hydroxyethyl)amino]ethyl}amino)phenyl]-8-ethyl-4-fluoro-15-methyl-6,8,10-triazatricyclo[9.4.0.0^2,7]pentadeca-1(11),2(7),3,5,12,14-hexaen-9-one]",< 100
22,"CCN1C(=O)N(c2c(F)cc(NCCNCCNC(=O)NC)cc2F)c2cc(C#N)ccc2-c2cc(Cl)cnc21 [1-166, 1-[2-({2-[(4-{4-chloro-13-cyano-8-ethyl-9-oxo-6,8,10-triazatricyclo[9.4.0.0^2,7]pentadeca-1(11),2(7),3,5,12,14-hexaen-10-yl}-3,5-difluorophenyl)amino]ethyl}amino)ethyl]-3-methylurea]",< 100
23,"CCN1C(=O)N(c2c(F)cc(NCCNC)cc2F)c2cc(C#N)cc(F)c2-c2cc(Cl)cnc21 [1-99, 4-chloro-10-(2,6-difluoro-4-{[2-(methylamino)ethyl]amino}phenyl)-8-ethyl-15-fluoro-9-oxo-6,8,10-triazatricyclo[9.4.0.0^2,7]pentadeca-1(11),2(7),3,5,12,14-hexaene-13-carbonitrile]",< 100
